Measurements published in patent US11820745B2, “PKC-activating compounds for the treatment of neurodegenerative diseases” (Synaptogenix, Inc., priority 2008, dated 2023).

Key:
PKC = PKC activity time course in rat H19-7/IGF-IR hippocampal cells; assay type: cell-based
Protocol: Cell culture. Rat hippocampal H19-71GF-IR cells (ATCC, Manassas, Va.) were plated onto poly-L-lysine coated plates and grown at 35° C. in DMEM/10% FCS for several days until about 50% coverage was obtained. The cells were then induced to differentiate into a neuronal phenotype by replacing the medium with 5 ml N2 medium containing 10 ng/ml basic fibroblast growth factor at 39° C. and grown in T-75 flasks at 37° C. Human SH-SY5Y neuroblastoma cells (ATCC) were cultured in 45% F12K/45% MEM/10% FCS. Mouse N2A neuroblastoma cells were cultured in DMEM/10% FCS without glutamine. Rat hippocampal neurons from 18-day-old embryonic
(§1) Protein kinase C assay. Rat hippocampal cells were cultured and scraped in 0.2 ml homogenization buffer (20 triM Tris-HCl, pH 7.4, 50 mM NaF, 1 μg/ml leupeptin, and 0.1 mM PMSF) and homogenized by sonication in a Marsonix micro-probe sonicator (5 see, 10W). To measure PKC, 10 ul of cell homogenate or purified. PKC isozyme (purchased from Calbiochem) was incubated for 15 min at 37° C. in the presence of 10 μM histones, 4.89 mM CaCl2, 1.2 μg/μl phosphatidyl-L-serine, 0.18 μg/μl 1,2-dioctanoyl-sn-glycerol, 10 mM MgCl2, 20 mM HEPES (pH 7.4), 0.8 mM EDTA, 4 mM EGTA, 4% glycerol, 8 μg/ml aprotinin, 8 μg/ml leupeptin, and 2 mM benzamidine. 0.5 μCi [^γ-32P]ATP was added and ^32P-phosphoprotein formation was measured by adsorption onto phosphocellulose as described previously. Nelson and Alkon, J. Neurochemistry. 1995; 65: 2350-57. For measurements of activation by BR-101 (DCP-LA) and similar compounds, PKC activity was measured in the absence of diacylglycerol and phosphatidyl serine, as described by Kanno et al., and PKC δ, ε, η, and μ were measured in the absence of added EGTA and CaCl2, as described by Kanno et al., J. Lipid Res. 2006; 47: 1146-50. Low concentrations of Ca^2+ are used because high Ca^2+ interacts with the PKC phosphatidylserine binding site and prevents activation. For measurements of bryostatin activation, 1,2-diacylglycerol was omitted unless otherwise stated.

PKCδ = molecular target: T1, PKCδ (Homo sapiens, UniProt Q05655); assay: Protein kinase C assay, purified PKC isozymes: PKCδ; assay type: biochemical; conditions: higher concentrations, about 1-100 μM; data not shown
T1 construct: purchased Calbiochem
T1 sequence (Q05655 whole entry): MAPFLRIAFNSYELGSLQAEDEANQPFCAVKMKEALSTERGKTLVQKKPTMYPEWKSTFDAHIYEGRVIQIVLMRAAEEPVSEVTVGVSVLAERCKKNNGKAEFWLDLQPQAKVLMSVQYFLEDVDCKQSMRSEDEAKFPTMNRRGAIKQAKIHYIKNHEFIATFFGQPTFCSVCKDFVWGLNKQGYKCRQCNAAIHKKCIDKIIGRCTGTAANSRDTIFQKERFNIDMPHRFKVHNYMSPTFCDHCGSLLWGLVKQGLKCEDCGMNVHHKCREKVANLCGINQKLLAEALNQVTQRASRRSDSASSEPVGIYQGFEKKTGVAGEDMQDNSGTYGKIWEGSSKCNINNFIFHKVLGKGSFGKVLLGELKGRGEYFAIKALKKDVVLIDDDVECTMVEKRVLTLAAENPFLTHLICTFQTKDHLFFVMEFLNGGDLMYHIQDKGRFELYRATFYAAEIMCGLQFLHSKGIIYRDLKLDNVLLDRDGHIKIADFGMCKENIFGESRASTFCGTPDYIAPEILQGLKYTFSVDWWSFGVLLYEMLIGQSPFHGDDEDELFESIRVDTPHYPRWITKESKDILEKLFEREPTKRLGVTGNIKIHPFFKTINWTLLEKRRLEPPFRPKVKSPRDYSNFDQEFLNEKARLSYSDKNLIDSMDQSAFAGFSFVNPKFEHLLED
Protocol: as §1, with “Low concentrations of Ca^2+ are used because high Ca^2+ interacts with the PKC phosphatidylserine binding site and prevents activation. For measurements of bryostatin activation, 1,2-diacylglycerol was omitted unless otherwise stated.” left out
(§2) To determine their PKC isozyme specificity, the new compounds were preincubated with purified PKC for five minutes and the PKC activity was measured radiometrically.

[1] = system: SH-SY5Y neuroblastoma cells; assay: Cell survival and proliferation (alamar Blue, CyQuant) in SH-SY5Y neuroblastoma cells; assay type: cell-based, human; conditions: for effect on proliferation: CyQuant staining, FIG. 11b; for effect on cell survival: alamar Blue, FIG. 11a
Protocol: AB Measurement and Cell Viability Assay. Aβ was measured using an Aβ1-42 human fluorimetric ELISA kit (Invitrogen) according to the manufacturer's instructions. Results were measured in a Biotek Synergy HT microplate reader. AlamarBlue and CyQuant NF (Invitrogen) according to the manufacturer's instructions.

PKCε = molecular target: T2, PKCε (Homo sapiens, UniProt Q02156); conditions: Kanno et al.; cited from earlier work
T2 construct: purchased Calbiochem
T2 sequence (Q02156 1-737): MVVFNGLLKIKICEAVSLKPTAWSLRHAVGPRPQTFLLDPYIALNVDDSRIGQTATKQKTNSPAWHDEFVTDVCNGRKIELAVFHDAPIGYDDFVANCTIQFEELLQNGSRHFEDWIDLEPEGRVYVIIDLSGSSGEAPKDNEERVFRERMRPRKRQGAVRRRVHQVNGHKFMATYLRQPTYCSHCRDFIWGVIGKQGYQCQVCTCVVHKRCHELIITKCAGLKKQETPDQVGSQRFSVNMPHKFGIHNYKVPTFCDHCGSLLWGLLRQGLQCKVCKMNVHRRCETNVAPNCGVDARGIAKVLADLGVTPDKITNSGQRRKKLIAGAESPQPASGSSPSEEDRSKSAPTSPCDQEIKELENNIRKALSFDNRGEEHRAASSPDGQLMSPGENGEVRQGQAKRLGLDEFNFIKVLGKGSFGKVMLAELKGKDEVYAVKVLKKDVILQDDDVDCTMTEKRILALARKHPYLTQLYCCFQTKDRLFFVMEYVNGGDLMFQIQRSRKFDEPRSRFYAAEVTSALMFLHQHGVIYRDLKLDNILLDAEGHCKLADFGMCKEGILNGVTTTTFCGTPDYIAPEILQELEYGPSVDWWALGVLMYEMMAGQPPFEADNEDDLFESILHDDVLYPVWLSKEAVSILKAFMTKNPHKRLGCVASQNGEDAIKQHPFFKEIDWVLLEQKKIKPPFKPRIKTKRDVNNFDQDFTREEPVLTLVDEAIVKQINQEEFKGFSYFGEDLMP

[2] = system: Endothelin-converting enzyme (ECE); assay: ECE assay in SH-SY5Y neuroblastoma cells; assay type: cell-based, human; conditions: bryostatin 0.27 nM, BR-101 1 μM, BR-111 1 μM; FIG. 10
Protocol: ECE assay. SH-S757 neuroblastoma cells were incubated with bryostatin (0.27 nM), BR-101 (PCP-LA) (1 μM), and BR-111 (DHA-CP6) (1 μM). Endothelin-converting enzyme (ECE) was measured fluorimetrically using the method of Johnson and Ahn, Anal. Biochem. 2000; 286: 112-118. A sample of cell homogenate (20 μl) was incubated in 50 mM MES-KOH, pH 6.0, 0.01% C12E10 (polyoxyethylene-10-tauryl ether), and 15 μM McaBK2. (7-Methoxycournarin-4-acetyl [Ala7-(2,4-Dinitrophenyl)Lys9]-bradykinin trifluoroacetate salt) (Sigma-Aldrich). After 60 min at 37° C., the reaction was quenched by adding trifluoroacetic acid to 0.5%. The sample was diluted to 1.4 ml with water and the fluorescence was measured at ex=334 nm, em=398 nm.

PKCγ = molecular target: T3, PKCγ (Homo sapiens, UniProt P05129); assay: Protein kinase C assay, purified PKC isozymes: PKCγ; assay type: biochemical; conditions: higher concentrations, 50-100 μM; data not shown
T3 construct: purchased Calbiochem
Protocol: as §1, with “Low concentrations of Ca^2+ are used because high Ca^2+ interacts with the PKC phosphatidylserine binding site and prevents activation. For measurements of bryostatin activation, 1,2-diacylglycerol was omitted unless otherwise stated.” left out
as §2

TACE = TACE assay in rat primary neurons; assay type: cell-based; conditions: primary neurons from rat hippocampus; FIGS. 9b, c
Protocol: TACE Assay. TACE was measured by incubating 5 μl cell homogenate, 3 μl buffer (50 mM Tris-HCl 7.4 plus 25 mM NaCl plus 4% glycerol), and 1 of 100 μM TACE substrate IV (Aβz-LAQAVRSSSR-DPa) (Calbiochem) for 20 min at 37° in 1.5-ml polypropylene centrifuge tubes (Jin et al., Anal Biochem. 2002; 302: 269-75). The reaction was stopped by cooling to 4° C. The samples were diluted to 1 ml and the fluorescence was rapidly measured (ex=320 nm, em=420 nm) in a Spex Fluorolog 2 spectrofluorometer.

Row | SMILES | downregulation of PKC (PKC) | effect on PKCδ (PKCδ) | effect on proliferation [1] | effect on cell survival [1] | potency for PKCε over other PKC isozymes (PKCε) | ECE activity [2] | effect on PKCγ (PKCγ) | TACE activity (TACE)
1 | CCCCCC1CC1CC1CC1CCCCCCCC(=O)O (centres unmarked) [BR-101, 8-[2-(2-pentyl-cyclopropylmethyl)-cyclopropyl]-octanoic acid] | could not be measured | partially inhibited | no effect | no effect | greater than 7 fold | sustained increase | activated | 
2 | CCC1CC1CC1CC1CC1CC1CC1CC1CC1CC1CC1CC1CCC(=O)OC (centres unmarked) [BR-111, methyl-3-(2-((2-((2-((2-((2-((2-ethylcyclopropyl)methyl)cyclopropyl)methyl)cyclopropyl)methyl)-cyclopropyl)methyl)cyclopropyl)methyl)cyclopropyl)propanoate] |  |  | no effect | no effect |  | sustained increase |  | small increases
